Measured values published in patent US9040563B2, “Dual inhibitors of farnesyltransferase and geranylgeranyltransferase I” (H. Lee Moffitt Cancer Center and Research Institute, Inc., priority 2010, dated 2015).

Assays:
Capan-2 = assay: MTT proliferation/viability assay; assay type: cell-based, human
Experimental: (§1) To determine if FGTI-2734 is more efficacious than FT or GGT-1 inhibitors, 10 human cancer pancreatic cell lines, 2 human breast cancer cell lines, 2 human lung cancer cell lines and one human prostate cancer cell line were treated with these inhibitors and determined their effects on the proliferation of these cells by MTT assay.

DU-145 = assay: MTT proliferation/viability assay; assay type: cell-based, human; conditions: Homo sapiens, DU-145, DU-145, prostate
Experimental: as §1

A549 = assay: MTT proliferation/viability assay; assay type: cell-based, human; conditions: Homo sapiens, A549, lung
Experimental: as §1

HPDE-C7 = assay: MTT proliferation/viability assay; assay type: cell-based, human; conditions: Homo sapiens, HPDE-C7, pancreas
Experimental: as §1

ASPC-1 = assay: MTT proliferation/viability assay; assay type: cell-based, human
Experimental: as §1

HPDE-C7-Kras = assay: MTT proliferation/viability assay; assay type: cell-based, human; conditions: pancreas
Experimental: as §1

HPNE = assay: MTT proliferation/viability assay; assay type: cell-based, human; conditions: Homo sapiens, pancreas
Experimental: as §1

MiaPaca = assay: MTT proliferation/viability assay; assay type: cell-based, human; conditions: Homo sapiens, MIA PaCa-2, pancreas
Experimental: as §1

GGTase-I = GGTase-I (Homo sapiens, UniProt P49354+P53609); assay: In vitro GGTase-I inhibition: incorporation of [3H]GGPP into recombinant H-Ras-CVLL; assay type: biochemical; conditions: average of n = 3 unless stated, errors are standard deviations, read-out: GGTase-1 IC50
[1] = test system: mTOR signaling pathway (pS6); assay: Western blot of pS6 (ser240/244), mTOR pathway signaling; assay type: cell-based, human; conditions: two breast adenocarcinoma and a pancreatic carcinoma cell line; FIG. 16
Text: Mammalian target of rapamycin (mTOR) is a serine/threonine phosphatidylinositol 3-kinase-related kinase responsible for cell growth, proliferation, cell survival, protein synthesis, and transcription. Alteration of the mTOR pathway, either through activation of oncogenes or inactivation of tumor suppressors, disrupts a signaling equilibrium and causes malignant transformation. Studies have shown that phosphorylated S6 (pS6) is related to mTOR pathway alterations, and is useful in determining PI3K-based cancer therapies (Aziz, et al. Phosphatidylinositol-3-Kinase as a Therapeutic Target in Melanoma. Clin Cancer Res. 2009, 15; 3029-3036). Two breast adenocarcinoma and a pancreatic carcinoma cell line were treated with indicated concentrations of FGTI-2734, GGTI-2417 or FTI-2153. Protein extracts were run on a Western Blot using antibody against pS6 (ser240/244) (Cell Signaling Technology, Inc., Danvers, Mass.). […] Antibodies used were HDJ-2 (Lab Vision Corporation, Fremont, Calif.), Rapt (Santa Cruz Biotechnology, Santa Cruz, Calif.), K-Ras (EMD4 Biosciences (Calbiochem), Gibbstown, N.J.), P27 (BD Biosciences, San Jose, Calif.), Actin (Sigma-Aldrich, St. Louis, Mo.), Survivin (Santa Cruz Biotechnology, Santa Cruz, Calif.), and PARP (Roche, Indianapolis, Ind.).

HDJ-2 farnesylation = assay: Western blot of HDJ-2 farnesylation/processing (gel shift) in treated cells; assay type: cell-based; conditions: MiaPaca, MDA-MB-468 and MDA-MB-231 human cancer cells; FIG. 13
Experimental: The ability of FGTI-2734 to inhibit HDJ-2 farnesylation and Rap-1A geranylgeranylation in human cancer cells was determined next. To this end, the MiaPaca pancreatic cancer cell line and 2 breast cancer cell lines (MDA-MB-468 and MDA-MB-231) were treated with various concentration of the dual inhibitor FGTI-2734, the GGT-1 inhibitor GGTI-2418 or the FT inhibitor FTI-2153 and processed for Western blotting.
Testing has shown that the dual farnesyltransferase and geranygeranyltransferase-I inhibitors are effective on pancreatic tumors (90% of all cases), colonic tumors (30% of all cases), lung tumors (30% of all cases), and breast tumors (10% of all cases). NIH-3T3 cells that overexpress oncogenic mutant K-Ras, seen in FIG. 14, and MDA-MB-231 breast cancer cells with a naturally occurring K-Ras mutation, seen in FIG. 15, were treated with indicated concentrations of FGTI-2734, GGTI-2417 or FTI-2153. FGTI-2734 but not FTI-2153 or GGTI-2417 inhibited K-Ras prenylation. As expected, GGTI-2417 inhibited the processing of Rap1 but not HDJ-2 whereas FTI-2153 inhibited the processing of HDJ-2 but not Rap1.
Mammalian target of rapamycin (mTOR) is a serine/threonine phosphatidylinositol 3-kinase-related kinase responsible for cell growth, proliferation, cell survival, protein synthesis, and transcription. […]

hFTase = hFTase (Homo sapiens, UniProt P49354+P49356); assay: In vitro hFTase inhibition: incorporation of [3H]FPP into recombinant H-Ras-CVLS; assay type: biochemical

IC50 (DU-145): 11.2 ± 6.09 µM
IC50 (A549): 13.2 ± 3.64 µM
IC50 (ASPC-1; ASPC-1, pancreas, listed as FGTI-2734): 12.6 µM
IC50 (ASPC-1; Homo sapiens, ASPC1, ASPC-1, pancreas): 11.2 µM
IC50 (MiaPaca): 2650 ± 300 nM
IC50 (GGTase-I): 520 ± 90 nM
selectivity (ratio of GGTase-I to FTase IC50s) (hFTase; GGTase-I IC50 / hFTase IC50): 2.1
IC50 (hFTase; in vitro, average of three independent assays (n = 3) unless stated, errors are standard deviations): 250 ± 190 nM
Compound: Cn1cncc1CN(CCN(CC1CCCCC1)S(=O)(=O)c1ccccn1)c1ccc(C#N)cc1F [21b, N-(2-((4-cyano-2-fluorophenyl)((1-methyl-1H-imidazol-5-yl)methyl)amino)ethyl)-N-(cyclohexylmethyl)pyridine-2-sulfonamide]
IC50 (Capan-2; Capan-2, pancreas, listed as FGTI-2734): 30 µM
IC50 (Capan-2; Homo sapiens, Capan-2, Capan-2, pancreas): 24 µM
IC50 (HPDE-C7): 7.5 µM
IC50 (HPDE-C7-Kras; Homo sapiens): 6.6 µM
IC50 (HPDE-C7-Kras; listed as FGTI-2734): 8.7 µM
IC50 (HPNE): 13.5 ± 1.72 µM
mTOR pathway signaling, levels of pS6 [1]: reducing the levels of pS6
inhibition of HDJ-2 farnesylation (HDJ-2 farnesylation): inhibited
